The values that follow are results of earlier work, collected in patent publication US11005050B2, “Metal complexes” (Merck Patent GmbH, priority 2014, dated 2021).

SMILES strings stand for the structures.

For this series the following is noted: prior-art statement; for example in aromatic hydrocarbons or chlorobenzene.

As to `c1cnc2c(c1)ccc1ccc[c]([Ir]([c]3cccc4ccc5cccnc5c34)[c]3cccc4ccc5cccnc5c34)c12` [tris(benzo[h]quinoline)iridium(III)], the “solubility in common organic solvents” value is given as “virtually insoluble”.
